Source: patent publication US20190315806A1, “POLYMYXIN DERIVATIVE, PREPARATION METHOD AND APPLICATION THEREOF” (priority 2016, published 2019)
Values after ≈ are worked out from the molar mass of the structure shown. Where a SMILES comes first, the peptide text is derived from it. Bridges are numbered along the chain shown (N, C = ends). [ ]: non-standard residue; d: D form. The star is where a group is joined. dPhe(4-NO2) = N[C@H](Cc1ccc([N+](=O)[O-])cc1)C(=O)O; dPhe(4-CF3) = N[C@H](Cc1ccc(C(F)(F)F)cc1)C(=O)O; Benzoyl(4-OPh) = O=C(c1ccc(Oc2ccccc2)cc1)*; dPhe(3-Cl) = N[C@H](Cc1cccc(Cl)c1)C(=O)O; dPhe(4-Cl) = N[C@H](Cc1ccc(Cl)cc1)C(=O)O; dPhe(2-Cl) = N[C@H](Cc1ccccc1Cl)C(=O)O; X7 = Cc1ccc(Oc2ccc(C(=O)*)cc2)cc1; X2 = CC[C@H](C)CCCCC(=O)*; Dab = NCC[C@H](N)C(=O)O

Legend:
Format in all cases: cell-based
[1] = test system: Klebsiella pneumoniae ATCC BAA-2146 (NDM-1); assay: Antibacterial activity, MIC by dish double dilution method; details: ATCC BAA-2146
Description: (§1) The minimum inhibitory concentration (MIC) was determined by means of dish double dilution method using a Multipoint inoculator according to the CLSI recommended method. The compounds of the present invention (for example, the compounds prepared in the Embodiments) and the reference substances were diluted twice each time with the broth into various desired concentrations, and appropriate amounts were added to the dishes. Agar medium is melted, and then quantitatively injected into the dish containing the drug solution, and mixed. The final concentrations of the compounds of the invention (e.g., the compounds prepared in the Embodiments) and the controls were 0.03, 0.06, 0.125, 0.25 . . . 128 μg/mL, respectively. The test bacteria were cultured overnight with nutrient broth, brain heart infusion or HTM broth. During the tests, the bacterial solutions were diluted appropriately, and the test bacteria (inoculation amount 10^4 CFU/dot) were inoculated on the surface of the drug-containing agar by a multi-point inoculator. After drying, the bacterial was incubated for 18 to 24 hours at 35° C., the results were observed, the minimum concentrations of the compounds of the present invention (for example, the compounds prepared in the Embodiments) and the controls contained in the dishes with no growth of colonies were MICs.
(§2) The strains used in the antibacterial activity experiments were from the American Type Culture Collection (ATCC) and clinical isolates.
(§3) The strains used for the experiments on antibacterial activity included Escherichia coli ATCC 25922, Klebsiella pneumoniae ATCC BAA-2146 (NDM-1), Pseudomonas aeruginosa ATCC 27853, Acinetobacter baumannii ATCC 19606 and Staphylococcus epidermidis ATCC 12228.
(§4) Tested samples: polymyxin derivatives prepared according to the technical scheme of the present invention;
(§5) Controls: polymyxin B sulfate and colistin (polymyxin E sulfate).

[2] = test system: Acinetobacter baumannii ATCC 19606; details: ATCC 19606
Description: as §1, §2, §3, §4, §5

[3] = test system: Pseudomonas aeruginosa ATCC 27853; details: ATCC 27853
Description: as §1, §2, §3, §4, §5

[4] = test system: Escherichia coli ATCC 25922; details: ATCC 25922
Description: as §1, §2, §3, §4, §5

[5] = test system: Staphylococcus epidermidis ATCC 12228; details: ATCC 12228
Description: as §1, §2, §3, §4, §5

Row | MIC K. pneumoniae ATCC BAA-2146 (NDM-1) [1] [µg/mL] | MIC A. baumannii ATCC 19606 [2] [µg/mL] | MIC P. aeruginosa ATCC 27853 [3] [µg/mL] | MIC E. coli ATCC 25922 [4] [µg/mL] | MIC S. epidermidis ATCC 12228 [5] [µg/mL] | Structure (SMILES)
1 | 2 (≈ 1.6 µM) | 1 (≈ 0.801 µM) | 2 (≈ 1.6 µM) | 1 (≈ 0.801 µM) | 8 (≈ 6.41 µM) | CC[C@H](C)CCCCC(=O)N[C@@H](CCN)C(=O)N[C@H](C(=O)N[C@@H](CCN)C(=O)N[C@H]1CCNC(=O)[C@H]([C@@H](C)O)NC(=O)[C@H](CCN)NC(=O)[C@H](CCN)NC(=O)[C@H](CC(C)C)NC(=O)[C@@H](Cc2ccc([N+](=O)[O-])cc2)NC(=O)[C@H](CCN)NC1=O)[C@@H](C)O [Compound 14, (S)-6-methyloctanoyl-Dab-Thr-Dab-ring(4-10)[Dab-Dab-D-Phe(4-NO2)-Lue-Dab-Dab-Thr]] (X2-[Dab]T[Dab][Dab][Dab][dPhe(4-NO2)]L[Dab][Dab]T; lactam 4-C)
2 | 2 (≈ 1.62 µM) | 1 (≈ 0.808 µM) | 2 (≈ 1.62 µM) | 1 (≈ 0.808 µM) | 16 (≈ 12.9 µM) | CC[C@H](C)CCCCC(=O)N[C@@H](CCN)C(=O)N[C@H](C(=O)N[C@@H](CCN)C(=O)N[C@H]1CCNC(=O)[C@H]([C@@H](C)O)NC(=O)[C@H](CCN)NC(=O)[C@H](CCN)NC(=O)[C@H](CC(C)C)NC(=O)[C@@H](Cc2ccc(Cl)cc2)NC(=O)[C@H](CCN)NC1=O)[C@@H](C)O [Compound 16, (S)-6-methyloctanoyl-Dab-Thr-Dab-ring(4-10)[Dab-Dab-D-Phe(4-Cl)-Lue-Dab-Dab-Thr]] (X2-[Dab]T[Dab][Dab][Dab][dPhe(4-Cl)]L[Dab][Dab]T; lactam 4-C)
3 | 2 (≈ 1.62 µM) | 0.5 (≈ 0.404 µM) | 2 (≈ 1.62 µM) | 1 (≈ 0.808 µM) | 4 (≈ 3.23 µM) | CC[C@H](C)CCCCC(=O)N[C@@H](CCN)C(=O)N[C@H](C(=O)N[C@@H](CCN)C(=O)N[C@H]1CCNC(=O)[C@H]([C@@H](C)O)NC(=O)[C@H](CCN)NC(=O)[C@H](CCN)NC(=O)[C@H](CC(C)C)NC(=O)[C@@H](Cc2ccccc2Cl)NC(=O)[C@H](CCN)NC1=O)[C@@H](C)O [Compound 18, (S)-6-methyloctanoyl-Dab-Thr-Dab-ring(4-10)[Dab-Dab-D-Phe(2-Cl)-Lue-Dab-Dab-Thr]] (X2-[Dab]T[Dab][Dab][Dab][dPhe(2-Cl)]L[Dab][Dab]T; lactam 4-C)
4 | 2 (≈ 1.62 µM) | 0.5 (≈ 0.404 µM) | 2 (≈ 1.62 µM) | 1 (≈ 0.808 µM) | 4 (≈ 3.23 µM) | CC[C@H](C)CCCCC(=O)N[C@@H](CCN)C(=O)N[C@H](C(=O)N[C@@H](CCN)C(=O)N[C@H]1CCNC(=O)[C@H]([C@@H](C)O)NC(=O)[C@H](CCN)NC(=O)[C@H](CCN)NC(=O)[C@H](CC(C)C)NC(=O)[C@@H](Cc2cccc(Cl)c2)NC(=O)[C@H](CCN)NC1=O)[C@@H](C)O [Compound 19, (S)-6-methyloctanoyl-Dab-Thr-Dab-ring(4-10)[Dab-Dab-D-Phe(3-Cl)-Lue-Dab-Dab-Thr]] (X2-[Dab]T[Dab][Dab][Dab][dPhe(3-Cl)]L[Dab][Dab]T; lactam 4-C)
5 | 2 (≈ 1.57 µM) | 1 (≈ 0.786 µM) | 2 (≈ 1.57 µM) | 1 (≈ 0.786 µM) | 8 (≈ 6.29 µM) | CC[C@H](C)CCCCC(=O)N[C@@H](CCN)C(=O)N[C@H](C(=O)N[C@@H](CCN)C(=O)N[C@H]1CCNC(=O)[C@H]([C@@H](C)O)NC(=O)[C@H](CCN)NC(=O)[C@H](CCN)NC(=O)[C@H](CC(C)C)NC(=O)[C@@H](Cc2ccc(C(F)(F)F)cc2)NC(=O)[C@H](CCN)NC1=O)[C@@H](C)O [Compound 23, (S)-6-methyloctanoyl-Dab-Thr-Dab-ring(4-10)[Dab-Dab-D-Phe(4-CF3)-Lue-Dab-Dab-Thr]] (X2-[Dab]T[Dab][Dab][Dab][dPhe(4-CF3)]L[Dab][Dab]T; lactam 4-C)

The next lines start with the molecule.

Row | Structure (SMILES) | MIC K. pneumoniae ATCC BAA-2146 (NDM-1) [1] [µg/mL] | MIC A. baumannii ATCC 19606 [2] [µg/mL] | MIC P. aeruginosa ATCC 27853 [3] [µg/mL] | MIC E. coli ATCC 25922 [4] [µg/mL] | MIC S. epidermidis ATCC 12228 [5] [µg/mL]
6 | CC(C)C[C@@H]1NC(=O)[C@@H](Cc2ccccc2)NC(=O)[C@H](CCN)NC(=O)[C@@H](NC(=O)[C@H](CCN)NC(=O)[C@@H](NC(=O)[C@H](CCN)NC(=O)c2ccc(Oc3ccccc3)cc2)[C@@H](C)O)CCNC(=O)[C@H]([C@@H](C)O)NC(=O)[C@H](CCN)NC(=O)[C@H](CCN)NC1=O [Compound 8, 4-(phenoxy)benzoyl-Dab-Thr-Dab-ring(4-10)[Dab-Dab-D-Phe-Lue-Dab-Dab-Thr]] ({Benzoyl(4-OPh)}-[Dab]T[Dab][Dab][Dab][dF]L[Dab][Dab]T; lactam 4-C) | 4 (≈ 3.18 µM) | 2 (≈ 1.59 µM) | 8 (≈ 6.35 µM) | 4 (≈ 3.18 µM) | 16 (≈ 12.7 µM)
7 | Cc1ccc(Oc2ccc(C(=O)N[C@@H](CCN)C(=O)N[C@H](C(=O)N[C@@H](CCN)C(=O)N[C@H]3CCNC(=O)[C@H]([C@@H](C)O)NC(=O)[C@H](CCN)NC(=O)[C@H](CCN)NC(=O)[C@H](CC(C)C)NC(=O)[C@@H](Cc4ccccc4)NC(=O)[C@H](CCN)NC3=O)[C@@H](C)O)cc2)cc1 [Compound 9, 4-(p-methylphenoxy)benzoyl-Dab-Thr-Dab-ring(4-10)[Dab-Dab-D-Phe-Lue-Dab-Dab-Thr]] (X7-[Dab]T[Dab][Dab][Dab][dF]L[Dab][Dab]T; lactam 4-C) | 4 (≈ 3.14 µM) | 4 (≈ 3.14 µM) | 4 (≈ 3.14 µM) | 4 (≈ 3.14 µM) | 8 (≈ 6.28 µM)
8 | CC[C@H](C)CCCCC(=O)N[C@@H](CCN)C(=O)N[C@H](C(=O)N[C@@H](CCN)C(=O)N[C@H]1CCNC(=O)[C@H]([C@@H](C)O)NC(=O)[C@H](CCN)NC(=O)[C@H](CCN)NC(=O)[C@H](CC(C)C)NC(=O)[C@@H](Cc2ccc(O)cc2)NC(=O)[C@H](CCN)NC1=O)[C@@H](C)O [Compound 12, (S)-6-methyloctanoyl-Dab-Thr-Dab-ring(4-10)[Dab-Dab-D-Tyr-Lue-Dab-Dab-Thr]] (X2-[Dab]T[Dab][Dab][Dab][dY]L[Dab][Dab]T; lactam 4-C) | 2 (≈ 1.64 µM) | 2 (≈ 1.64 µM) | 1 (≈ 0.82 µM) | 2 (≈ 1.64 µM) | 128 (≈ 105 µM)
9 | CC[C@H](C)CCCCC(=O)N[C@@H](CCN)C(=O)N[C@H](C(=O)N[C@@H](CCN)C(=O)N[C@H]1CCNC(=O)[C@H]([C@@H](C)O)NC(=O)[C@H](CCN)NC(=O)[C@H](CCN)NC(=O)[C@H](CC(C)C)NC(=O)[C@@H](Cc2ccc(OC)cc2)NC(=O)[C@H](CCN)NC1=O)[C@@H](C)O [Compound 24, (S)-6-methyloctanoyl-Dab-Thr-Dab-ring(4-10)[Dab-Dab-D-Phe(4-OCH3)-Lue-Dab-Dab-Thr]] (X2-[Dab]T[Dab][Dab][Dab][dY](Me)L[Dab][Dab]T; lactam 4-C) | 2 (≈ 1.62 µM) | 1 (≈ 0.811 µM) | 2 (≈ 1.62 µM) | 1 (≈ 0.811 µM) | 16 (≈ 13 µM)
